Test results from PMC9101642 (Molecules, 2022).
Like-named read-outs stand apart in the source and are kept apart here. Marks after values point to notes of the source that are not given here.

Columns and labels:
ERα [1] = target: T1, ERα (Homo sapiens, UniProt P03372); test: Fluorescence polarization competition assay: antagonistic potency and relative binding affinity; conditions: for logRBA ERα: log of % relative binding affinity, estradiol = 100%
T1 sequence (P03372 1-595): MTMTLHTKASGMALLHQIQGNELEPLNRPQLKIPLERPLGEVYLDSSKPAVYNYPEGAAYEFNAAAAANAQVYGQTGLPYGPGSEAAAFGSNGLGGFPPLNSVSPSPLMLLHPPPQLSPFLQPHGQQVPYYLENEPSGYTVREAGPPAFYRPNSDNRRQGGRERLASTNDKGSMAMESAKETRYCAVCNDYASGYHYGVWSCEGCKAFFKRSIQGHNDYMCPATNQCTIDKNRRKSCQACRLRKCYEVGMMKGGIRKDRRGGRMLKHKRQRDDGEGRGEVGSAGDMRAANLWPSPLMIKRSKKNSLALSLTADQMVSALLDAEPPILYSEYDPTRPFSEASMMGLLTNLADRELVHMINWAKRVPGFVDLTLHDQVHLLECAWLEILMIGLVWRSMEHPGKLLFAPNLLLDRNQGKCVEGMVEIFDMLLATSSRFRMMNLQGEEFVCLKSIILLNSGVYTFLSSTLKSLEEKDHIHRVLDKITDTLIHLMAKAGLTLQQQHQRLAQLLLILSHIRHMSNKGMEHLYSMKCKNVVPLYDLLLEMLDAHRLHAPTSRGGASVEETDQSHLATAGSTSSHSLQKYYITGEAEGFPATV

ERβ = ERβ (Homo sapiens, UniProt Q92731); test: as above; conditions: for logRBA ERβ: log of % relative binding affinity, estradiol = 100%
Chain of ERβ (Q92731 whole entry): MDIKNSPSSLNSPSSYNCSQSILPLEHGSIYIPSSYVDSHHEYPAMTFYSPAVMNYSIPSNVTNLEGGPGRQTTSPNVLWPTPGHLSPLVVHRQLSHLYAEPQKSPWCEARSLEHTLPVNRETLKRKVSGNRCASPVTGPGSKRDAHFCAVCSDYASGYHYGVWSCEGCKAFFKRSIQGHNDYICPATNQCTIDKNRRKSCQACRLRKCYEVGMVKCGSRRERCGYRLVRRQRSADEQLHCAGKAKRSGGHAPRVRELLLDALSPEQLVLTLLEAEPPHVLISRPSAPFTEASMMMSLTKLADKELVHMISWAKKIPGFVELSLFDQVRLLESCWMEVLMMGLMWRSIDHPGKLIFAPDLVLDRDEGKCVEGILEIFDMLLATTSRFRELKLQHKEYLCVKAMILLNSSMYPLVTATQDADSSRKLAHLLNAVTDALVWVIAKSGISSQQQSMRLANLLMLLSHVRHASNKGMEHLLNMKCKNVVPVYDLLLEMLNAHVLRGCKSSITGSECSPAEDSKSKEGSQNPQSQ

MCF-7 cell lines = test: MTT antiproliferative assay; assay type: cell-based, human; conditions: for IC50: Homo sapiens, MCF7, growth inhibition, 48 h, read-out: MCF-7 (IC50 nM); for SI: selectivity index [IC50(MDA-MB-231)]/[IC50(MCF-7)]
MDA-MB-231 cell lines = test: MTT antiproliferative assay; assay type: cell-based, human; conditions: Homo sapiens, MDA-MB-231; growth inhibition, 48 h; read-out: MDA-MB-231 (IC50 nM)
[2] = system: Ishikawa endometrial adenocarcinoma cells; test: Antiproliferative assay; assay type: cell-based; conditions: Homo sapiens, growth inhibition
Text: As SERMs profile is often associated with the stimulation of endometrial cell proliferation and an increase in the incidence of endometrial cancer (EC), the herein compounds were therefore evaluated against Ishikawa endometrial adenocarcinoma cells (Table 8, Supplementary Material Figures […]). […] However, future experimental elaboration, currently beyond the authors' experimental facilities, is required to confirm compounds' promising profiles in terms of no EC induction.

ERα [3] = target: T1, ERα; test: ERα down-regulation immunofluorescence assay in MCF-7; assay type: cell-based
[4] = system: progesterone receptor (PR); test: ERα functional antagonism cell assay (PR as biomarker) in MCF-7; assay type: cell-based; conditions: Homo sapiens, MCF7; progesterone receptor as biomarker for ERα antagonism in MCF-7
MCF-7 cells = test: Cell cycle distribution by flow cytometry; assay type: cell-based, human; conditions: 24 h
[5] = MTT antiproliferative assay (neutral control); conditions: human
[6] = 1 nM as lower concentration (3DPQ-5, 3DPQ-6, 3DPQ-8)

Structure (SMILES)	logRBA ERα (ERα [1])	ERα potency, fold more potent than 4-OHT (ERα [1]; ratio of IC50 values) [fold]	logRBA ERβ (ERβ)	IC50 (MCF-7 cell lines) [nM]	SI (MCF-7 cell lines)	IC50 (MDA-MB-231 cell lines) [nM]	IC50 [2] [nM]	IC50 [4] [nM]	IC50 at 48 h [5] [nM]	IC50 (ERα [1]) [nM]	Ki (ERα [1]) [nM]	IC50 (ERβ) [nM]	Ki (ERβ) [nM]	IC50 (ERα [3]) [nM]	Cell Cycle (%) G0/G1 (MCF-7 cells; 0.1 nM)	Cell Cycle (%) G2/M (MCF-7 cells; 0.1 nM)	Cell Cycle (%) S (MCF-7 cells; 0.1 nM)	Cell Cycle (%) G0/G1 (MCF-7 cells; 1 nM)	Cell Cycle (%) G2/M (MCF-7 cells; 1 nM)	Cell Cycle (%) S (MCF-7 cells; 1 nM)	also measured
CC(=O)c1cc(C(=O)O[C@@H]2/C=C/C(=O)O[C@@H](O)CCC/C=C/[C@@H]3C[C@H](O)C[C@H]32)ccc1OCCN1CCCC2CCCNC21 (stereo partly drawn) [Compound 3DPQ-8, (1R,2E,6R,10E,11aS,13S,14aR)-6,13-dihydroxy-4-oxo-4,6,7,8,9,11a,12,13,14,14a-decahydro-1H-cyclopenta[f][1]oxacyclotridecin-1-yl 3-acetyl-4-(2-(octahydro-1,8-naphthyridin-1(2H)-yl)ethoxy)benzoate]	2.04 ^‡	1.38	0.09 ^†,‡,§	1.06 ± 0.45	40.15 ^‡,§	42.56 ± 0.35	1.98 ± 0.32	> 100	> 100												Ki (ERα [1]; calculated antagonistic (inhibitory) constant, read-out: Ka ERα): 0.18 nM; IC50 (ERα [1]; concentration that antagonizes 50% of ERα signaling activity, read-out: ERα (IC50 nM)): 0.81 ± 0.14 nM; Ki (ERβ; calculated antagonistic (inhibitory) constant, read-out: Ka ERβ): 40.6 nM; IC50 (ERβ; concentration that antagonizes 50% of ERβ signaling activity, read-out: ERβ (IC50 nM)): 72.3 ± 0.78 nM; IC50 (ERα [3]; ERα downregulation measured in MCF-7, read-out: MCF-7 DR (IC50 nM)): > 100 nM; Cell Cycle (%) G0/G1 (MCF-7 cells; [6]): 72.39 ± 1.43 *^,†,‡,§ %; Cell Cycle (%) G2/M (MCF-7 cells; [6]): 15.11 ± 2.56 *^,†,‡,§ %; Cell Cycle (%) S (MCF-7 cells; [6]): 12.50 ± 1.22 *^,†,‡,§ %; Cell Cycle (%) G0/G1 (MCF-7 cells; 10 nM (3DPQ-5, 3DPQ-6, 3DPQ-8)): 74.85 ± 2.54 *^,†,‡,§ %; Cell Cycle (%) G2/M (MCF-7 cells; 10 nM (3DPQ-5, 3DPQ-6, 3DPQ-8)): 11.95 ± 2.45 *^,†,‡,§ %; Cell Cycle (%) S (MCF-7 cells; 10 nM (3DPQ-5, 3DPQ-6, 3DPQ-8)): 13.21 ± 2.15 *^,†,‡,§ %
CC(=O)c1cc(C(=O)O[C@@H]2/C=C/C(=O)O[C@@H](O)CCC/C=C/[C@@H]3C[C@H](O)C[C@H]32)ccc1OCCN1CCCCC1 [Compound 3DPQ-10, (1R,2E,6R,10E,11aS,13S,14aR)-6,13-dihydroxy-4-oxo-4,6,7,8,9,11a,12,13,14,14a-decahydro-1H-cyclopenta[f][1]oxacyclotridecin-1-yl 3-acetyl-4-(2-(piperidin-1-yl)ethoxy)benzoate]	2.06 ^‡	1.45	0.05 ^†,‡,§	0.97 ± 0.34	42.27 ^‡,§	41.97 ± 0.32	1.55 ± 0.42	> 100	> 100	0.77 ± 0.14	0.17	79.54 ± 0.76	44.7	> 100	71.96 ± 1.43 *^,†,‡,§ %	16.08 ± 1.56 *^,†,‡,§ %	11.96 ± 2.41 *^,†,‡,§ %	74.42 ± 2.12 *^,†,‡,§ %	12.92 ± 4.32 *^,†,‡,§ %	12.67 ± 2.46 *^,†,‡,§ %	
CC(=O)c1cc(C(=O)O[C@@H]2/C=C/C(=O)O[C@@H](O)CCC/C=C/[C@@H]3C[C@H](O)C[C@H]32)ccc1OCCN1CCCC1 [Compound 3DPQ-11, (1R,2E,6R,10E,11aS,13S,14aR)-6,13-dihydroxy-4-oxo-4,6,7,8,9,11a,12,13,14,14a-decahydro-1H-cyclopenta[f][1]oxacyclotridecin-1-yl 3-acetyl-4-(2-(pyrrolidin-1-yl)ethoxy)benzoate]	2.10 ^‡		0.07 ^†,‡,§	0.81 ± 0.22	82.86 ^‡,§	67.12 ± 0.54	1.37 ± 0.47	> 100	> 100	0.7 ± 0.33	0.16	76.52 ± 0.48	43	> 100	72.53 ± 0.47 *^,†,‡,§ %	14.16 ± 2.13 *^,†,‡,§ %	13.31 ± 1.66 *^,†,‡,§ %	74.99 ± 2.54 *^,†,‡,§ %	11.00 ± 3.43 *^,†,‡,§ %	14.02 ± 1.43 *^,†,‡,§ %	ERα potency, fold higher than Ral (ERα [1]; ratio of IC50 values): 1.06 fold; MCF-7 antiproliferative potency, fold higher than Ral (MCF-7 cell lines; ratio of IC50 values): 1.10 fold
